Measured values from US20120039981A1, “Chewing Gum And Particulate Material For Controlled Release Of Active Ingredients” (priority 2009, published 2012).
Where two headings read alike, the source gives them in different places.

Source text: Absorption of nicotine from the oral cavity to the systemic circulation is dependent on the pH of the saliva and the […] of nicotine, which is about 7.8. Assuming a pH of the saliva of 6.8 only about 10% of the nicotine in saliva will be in the free base form. Thus, in order to promote absorption of nicotine in a free base form, which is the form predomi-nantly absorbed through the mucosa, the pH of the saliva must be increased. At a pH of 8.8 about 90% of the nicotine in saliva will then be in the free base form.

CN1CCCC1c1cccnc1 (centres unmarked) [nicotine, 3-(1-methyl-2-pyrrolidinyl)-pyridine]
nicotine in saliva in the free base form (saliva pH 6.8): about 10%
nicotine in saliva in the free base form (saliva pH 8.8): about 90%
